Assay results reported in PubChem BioAssay (NCI).
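Assay format: 96-well plates, 48-hour exposure. GI50 = concentration required for 50% inhibition of growth. At the TGI there is no net growth.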

How the values were obtained:
Experiment in all cases: DTP human tumour cell line panel, 48 h
[1] = system: 786-0 renal
[2] = system: A549 NSCLC
[3] = system: CAKI-1 renal
[4] = system: COLO 205 colon
[5] = system: HS 578T breast
[6] = system: NCI-H460 lung
[7] = system: NCI-H522 lung
[8] = system: OVCAR-3 ovarian
[9] = system: UO-31 renal

In the case of `S=C(N/N=C\c1ccccn1)N(Cc1ccccn1)Cc1ccccn1`, the TGI [1] is reported as 13.3 µM, the TGI [2] is reported as over 42 µM and the TGI [3] is reported as 14.6 µM. It also gave a TGI [4] of 23.9 µM, a TGI [5] of over 74.4 µM and a TGI [6] of over 44 µM. It also gave a TGI [7] of 33.1 µM, a TGI [8] of over 48.7 µM and a TGI [9] of 7.87 µM.
For `CC1(C)CCCCCCCCCC(C)(CCCCCCCCCCCCO)C1=O` (stereo unspecified), the TGI [1] was 32.6 µM, the TGI [2] was 29.9 µM and the TGI [3] was 41.5 µM. The TGI [4] was 62.7 µM, the TGI [5] was 38 µM and the TGI [6] was 33.4 µM. The TGI [7] was 30.3 µM, the TGI [8] was 29.4 µM and the TGI [9] was 32.1 µM.
`CCOC(=O)c1c(NCc2ccccc2)n(-c2ccccc2)c(=S)n(-c2ccccc2)c1=O` showed a TGI [1] of over 100 µM, a TGI [2] of over 100 µM and a TGI [4] of over 100 µM. It also gave a TGI [5] of 94.4 µM, a TGI [6] of over 100 µM and a TGI [7] of over 100 µM. The TGI [8] was over 100 µM and the TGI [9] was over 100 µM.
Work on `N=C(N)SCCCN` yielded a TGI [1] of 66.1 µM, a TGI [2] of over 100 µM and a TGI [3] of over 69.9 µM. The TGI [4] was 29.5 µM, the TGI [5] was 43.5 µM and the TGI [6] was 15.8 µM. The TGI [7] was 25.5 µM, the TGI [8] was 30.5 µM and the TGI [9] was 37.5 µM.
`CCNc1ncnc2c1nnn2CC` was tested, and the TGI [1] was over 100 µM, the TGI [2] was over 100 µM and the TGI [3] was over 100 µM. For the same molecule, the TGI [4] was over 100 µM, the TGI [7] was over 100 µM and the TGI [8] was over 100 µM. For the same molecule, the TGI [9] was over 100 µM.
Molecule `c1csc(-c2csc(-c3ccsc3)c2)c1` has a TGI [1] of over 100 µM, a TGI [2] of over 100 µM and a TGI [3] of over 100 µM. It also gave a TGI [4] of over 100 µM, a TGI [5] of over 100 µM and a TGI [6] of over 100 µM. It also gave a TGI [7] of over 100 µM, a TGI [8] of over 100 µM and a TGI [9] of over 100 µM.
For `N#CC12C(=O)N3C(=NC(c4ccccc4)NC3c3ccccc3)C1(C#N)C(c1ccccc1)NC1=C2CCCC1` (stereo unspecified), the TGI [1] was over 100 µM, the TGI [2] was over 100 µM and the TGI [3] was over 100 µM. For the same molecule, the TGI [4] was over 100 µM, the TGI [5] was over 100 µM and the TGI [6] was over 100 µM. It also gave a TGI [7] of over 100 µM, a TGI [8] of over 100 µM and a TGI [9] of over 100 µM.
`O=S1(=O)C(c2ccccc2)=C(O)c2ccccc21` showed a TGI [1] of over 100 µM, a TGI [2] of over 100 µM and a TGI [4] of over 100 µM. It also gave a TGI [5] of over 100 µM, a TGI [6] of over 100 µM and a TGI [7] of over 100 µM. For the same molecule, the TGI [8] was over 100 µM and the TGI [9] was over 100 µM.
`C[C@@H]1CC[C@@H](C)[C@](C)(CCc2ccoc2)C/C=C\C=C/1C(=O)O` was tested, and the TGI [1] was over 50 µM, the TGI [2] was over 50 µM and the TGI [3] was over 50 µM. It also gave a TGI [4] of over 50 µM, a TGI [5] of over 50 µM and a TGI [6] of over 50 µM. It also gave a TGI [8] of over 50 µM and a TGI [9] of over 50 µM.
Molecule `CC(=O)c1ccc(N2CCN(C3=CC(=O)c4c(O)ccc(O)c4C3=O)CC2)cc1` has a TGI [1] of over 100 µM, a TGI [2] of over 100 µM and a TGI [3] of over 100 µM. For the same molecule, the TGI [4] was over 100 µM, the TGI [6] was over 100 µM and the TGI [8] was over 100 µM. The TGI [9] was 35.5 µM.
`O=S(=O)(O)c1cc(O)c2c(O)c(N=Nc3cccc4ccccc34)c(S(=O)(=O)O)cc2c1` gave a TGI [1] of over 100 µM, a TGI [2] of over 100 µM and a TGI [3] of over 100 µM. The TGI [4] was over 100 µM, the TGI [5] was over 100 µM and the TGI [7] was over 100 µM. The TGI [8] was over 100 µM and the TGI [9] was over 100 µM.
`O/N=C1\CCc2nonc2\C1=N/Nc1ccccc1` gave a TGI [1] of over 100 µM, a TGI [2] of over 100 µM and a TGI [3] of over 100 µM. It also gave a TGI [4] of over 100 µM, a TGI [5] of over 100 µM and a TGI [6] of over 100 µM. For the same molecule, the TGI [8] was over 100 µM and the TGI [9] was over 100 µM.
Work on `O=C(O)c1cc(Cl)cc2c1NC1(N2)C(=O)Nc2ccccc21` (stereo unspecified) yielded a TGI [1] of over 100 µM, a TGI [2] of over 100 µM and a TGI [3] of over 100 µM. It also gave a TGI [4] of over 100 µM, a TGI [6] of over 100 µM and a TGI [7] of over 100 µM. The TGI [8] was over 100 µM and the TGI [9] was over 100 µM.
Molecule `CN(C)C(=O)C(F)(F)C(c1ccc(Br)cc1)C1C(=O)N(C)C(=O)N(C)C1=O` (stereo unspecified) has a TGI [1] of over 100 µM, a TGI [2] of over 100 µM and a TGI [3] of over 100 µM. It also gave a TGI [4] of over 100 µM, a TGI [6] of over 100 µM and a TGI [8] of over 100 µM. The TGI [9] was over 100 µM.
`O=C1c2ccccc2-c2nc(-c3ccccc3)cc3c2c1nc1ccccc13` was tested, and the TGI [1] was over 100 µM, the TGI [2] was 52.9 µM and the TGI [3] was 74.9 µM. The TGI [4] was 65.3 µM, the TGI [5] was 63.9 µM and the TGI [8] was 2.43 µM. It also gave a TGI [9] of 84.1 µM.
For `COC(=O)/C(=C\c1ccco1)P(=O)(OC)OC`, the TGI [1] was over 100 µM, the TGI [2] was over 100 µM and the TGI [3] was 65 µM. For the same molecule, the TGI [4] was over 100 µM, the TGI [5] was over 100 µM and the TGI [6] was over 100 µM. The TGI [7] was 5.52 µM and the TGI [8] was 81.6 µM.
Work on `Clc1nc(Nc2nc3ccccc3[nH]2)nc(Cl)c1Cc1ccccc1` yielded a TGI [1] of over 100 µM, a TGI [2] of over 100 µM and a TGI [3] of over 100 µM. For the same molecule, the TGI [4] was over 100 µM, the TGI [5] was over 100 µM and the TGI [6] was over 100 µM. The TGI [7] was over 100 µM and the TGI [9] was over 100 µM.
For `CC(=O)O[C@H]1CN(S(=O)(=O)c2ccc(C)cc2)C[C@@H]1C1CCCCC1`, the TGI [3] was 83.7 µM, the TGI [4] was over 100 µM and the TGI [5] was 37.8 µM. For the same molecule, the TGI [6] was over 100 µM, the TGI [8] was 43.5 µM and the TGI [9] was over 100 µM.
Work on `CC(C)(C)OC(=O)NCC(=O)NC1C/C(=N\O)c2sccc21` (stereo unspecified) yielded a TGI [2] of over 100 µM, a TGI [3] of over 100 µM and a TGI [4] of over 100 µM. The TGI [5] was over 100 µM, the TGI [6] was over 100 µM and the TGI [8] was over 100 µM. The TGI [9] was over 100 µM.
`Cc1nn(C)c2nc3ccc(Cl)cc3c(-c3ccccc3)c12` gave a TGI [1] of over 100 µM, a TGI [2] of over 100 µM and a TGI [3] of over 100 µM. The TGI [4] was over 100 µM, the TGI [6] was over 100 µM and the TGI [7] was over 100 µM. It also gave a TGI [8] of over 100 µM and a TGI [9] of over 100 µM.
For `COP(=O)(OC)C(NC=O)P(=O)(OC)OC`, the TGI [1] was over 100 µM, the TGI [2] was over 100 µM and the TGI [3] was over 100 µM. It also gave a TGI [4] of over 100 µM, a TGI [5] of over 100 µM and a TGI [6] of over 100 µM. It also gave a TGI [8] of over 100 µM and a TGI [9] of over 100 µM.
For `COc1cc(OC)cc(-c2n/c(=C\c3c(O)[nH]c4ccc(Cl)cc34)cc3c2=Nc2ccccc2-3)c1`, the GI50 [2] was 3.21 µM, the TGI [2] was 11.1 µM and the GI50 [3] was 12.9 µM. It also gave a TGI [3] of 30.5 µM, a GI50 [5] of 16.4 µM and a TGI [5] of 62.4 µM. It also gave a GI50 [6] of 3.26 µM, a TGI [6] of 10.5 µM and a GI50 [7] of 3.09 µM. The TGI [7] was 10.5 µM, the GI50 [8] was 2460 nM and the TGI [8] was 5.22 µM. The GI50 [9] was 12.5 µM and the TGI [9] was 29.2 µM.
`Cc1c(C#N)c2nnn(-c3ccccc3)c(=O)n2c1-c1ccccc1` gave a TGI [1] of 30.1 µM, a TGI [2] of over 45.8 µM and a TGI [3] of over 100 µM. It also gave a TGI [4] of 3.41 µM, a TGI [5] of over 100 µM and a TGI [6] of over 76.6 µM. The TGI [8] was 16.2 µM and the TGI [9] was over 100 µM.
In the case of `Cc1nn(C(=O)c2ccncc2)c2c1C(c1cccc([N+](=O)[O-])c1)SC(N)=N2` (stereo unspecified), the TGI [1] is reported as over 10 µM, the TGI [2] is reported as over 10 µM and the TGI [3] is reported as over 10 µM. The TGI [4] was over 10 µM, the TGI [5] was over 10 µM and the TGI [6] was over 10 µM. The TGI [7] was over 10 µM and the TGI [8] was over 10 µM.
